Reference: US5939523A, “Purification of dalbaheptide antibiotics by isoelectric focusing” (Gruppo Lepetit SpA, priority 1995, dated 1999)

Experiment: Analytical immobilized pH gradient (IPG) gels for determining pI values
Type: physicochemical
Settings: analytical IPG gel, pH interval 8.0 to 9.0, mixture of 8M urea and 1% CHAPS
Source text: Preparation of Analytical Immobilized pH Gradient (IPG) Gels, for Determining the pI Values of the Main Component and of the Impurities
Gel dimension: 25×10 cm, 0, 5 mm thick; pH interval: 7.0 to 10.0.
The IPG ranges are set in a 5% T, 4% C polyacrylamide matrix, according to the preparation recipe disclosed in Ref. 110. After preparing the two limiting, acidic and basic mixtures, they are titrated (with a weak acid and a weak base) to pH values close to neutrality. This is important in order to ensure uniform polymerization and efficient monomer conversion throughout the preformed pH gradient. Upon gel washing in distilled water (3×30 min), all added titrants (as well as catalysts and ungrafted monomers) are efficiently removed. The gels are then equilibrated for 30 min in 2% glycerol solution, dried in air and reswollen in a mixture of 8M urea and 3.5% CHAPS, overnight. The sample is applied in surface wells at the anodic gel side in concentrations from 80 to 600 μg/track. […]
For exactly determining the pI value of the amide derivative of factor B0 and factor B1, the above procedure is repeated under the same conditions, in the pH interval from 8.0 to 9.0 using a mixture of 8M urea and 1% CHAPS. The so determined pI value of the amide derivative of factor B0 is 8.56, whilst the pI value of the amide derivative of factor B1 is 8.40.

| pI value | Substance |
| --- | --- |
| 8.40 | 6^B -decarboxy-6^B -(hydroxymethyl)-N^63 -3-(dimethyl-amino)propyl amide derivative of antibiotic A40926 factor B1 [amide derivative of factor B1] |
| 8.56 | 6^B -decarboxy-6^B -(hydroxymethyl)-N^63 -3-(dimethyl-amino)propyl amide derivative of antibiotic A40926 factor B0 [amide derivative of factor B0] |
